The source made the active and inactive calls. The rule behind the calls is not given here.
Tests used:
[1] = Cytotoxicity against human LM3 cells assessed as inhibition of cell growth incubated for 24 hrs by MTT assay; assay type: functional, cell-based; details: LM3, 24 h
MHCC97H = experiment: Cytotoxicity against human MHCC97H cells assessed as inhibition of cell growth incubated for 24 hrs by MTT assay; assay type: functional, cell-based
HepG2 = experiment: Cytotoxicity against human HepG2 cells assessed as inhibition of cell growth incubated for 24 hrs by MTT assay; assay type: functional, cell-based; details: HepG2, 24 h
[2] = Cytotoxicity against HEK293T cells assessed as inhibition of cell growth incubated for 24 hrs by MTT assay; assay type: toxicity, cell-based, HEK-293T; details: human
Staphylococcus aureus [3] = experiment: Antibacterial activity against Staphylococcus aureus SA1199B assessed as inhibition of microbial growth; assay type: functional
Staphylococcus aureus [4] = experiment: Synergistic antibacterial activity against Staphylococcus aureus SA1199B assessed as inhibition of microbial growth in presence of norfloxacin; assay type: functional
Staphylococcus aureus [5] = experiment: Synergistic antibacterial activity against Staphylococcus aureus SA1199B assessed as norfloxacin MIC; assay type: functional
Staphylococcus aureus [6] = experiment: Synergistic antibacterial activity against Staphylococcus aureus SA1199B assessed as fractional inhibitory concentration index in presence of norfloxacin; assay type: functional
Staphylococcus aureus [7] = experiment: Potency index, ratio of test compound MIC to norfloxacin MIC for antibacterial activity against fluoroquinolone-resistant Staphylococcus aureus SA1199B assessed as inhibition of microbial growth; assay type: functional
[8] = molecular target: T1, Quinolone resistance protein NorA (Staphylococcus aureus) (UniProt P0A0J7); experiment: Inhibition of NorA efflux pump in norfloxacin-resisitant Staphylococcus aureus SA1199B overexpressing NorA gene assessed as reduction in EtBr efflux inhibition at 25 uM incubated for 20 mins by fluorometric assay
T1 sequence (whole entry): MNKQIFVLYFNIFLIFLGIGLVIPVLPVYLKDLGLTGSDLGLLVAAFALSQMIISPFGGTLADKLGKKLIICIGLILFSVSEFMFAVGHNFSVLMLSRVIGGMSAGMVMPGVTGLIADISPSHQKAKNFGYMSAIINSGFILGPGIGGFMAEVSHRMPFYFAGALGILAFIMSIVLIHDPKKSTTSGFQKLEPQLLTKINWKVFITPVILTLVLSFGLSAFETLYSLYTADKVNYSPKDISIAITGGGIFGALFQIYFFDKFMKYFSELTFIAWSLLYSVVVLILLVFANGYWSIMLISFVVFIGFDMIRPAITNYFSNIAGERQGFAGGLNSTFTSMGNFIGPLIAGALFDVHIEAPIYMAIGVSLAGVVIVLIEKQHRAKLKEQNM

COLO 205 = experiment: Cytotoxicity against human COLO 205 cells assessed as inhibition of cell growth incubated for 24 hrs by MTT assay; assay type: functional, cell-based; details: COLO 205, 24 h
LS-513 = experiment: Cytotoxicity against human LS-513 cells assessed as inhibition of cell growth incubated for 24 hrs by MTT assay; assay type: functional, cell-based; details: LS-513, 24 h
SW-620 = experiment: Cytotoxicity against human SW620 cells assessed as inhibition of cell growth incubated for 24 hrs by MTT assay; assay type: functional, cell-based; details: SW-620, 24 h
Staphylococcus aureus [9] = experiment: Antibacterial activity against Staphylococcus aureus RN4220 assessed as inhibition of microbial growth; assay type: functional
Staphylococcus aureus [10] = experiment: Antibacterial activity against Staphylococcus aureus XU212 assessed as inhibition of microbial growth; assay type: functional
Staphylococcus aureus [11] = experiment: Synergistic antibacterial activity against Staphylococcus aureus RN4220 assessed as inhibition of microbial growth in presence of streptomycin; assay type: functional
Staphylococcus aureus [12] = experiment: Synergistic antibacterial activity against Staphylococcus aureus XU212 assessed as inhibition of microbial growth in presence of tetracycline; assay type: functional
Staphylococcus aureus [13] = experiment: Synergistic antibacterial activity against Staphylococcus aureus […] assessed as streptomycin MIC; assay type: functional
Staphylococcus aureus [14] = experiment: Synergistic antibacterial activity against Staphylococcus aureus XU212 assessed as tetracyclin MIC; assay type: functional
Staphylococcus aureus [15] = experiment: Synergistic antibacterial activity against Staphylococcus aureus RN4220 assessed as fractional inhibitory concentration index in presence of streptomycin; assay type: functional
Staphylococcus aureus [16] = experiment: Additive antibacterial activity against Staphylococcus aureus XU212 assessed as fractional inhibitory concentration index in presence of tetracycline; assay type: functional
Staphylococcus aureus [17] = experiment: Antibacterial activity against fluoroquinolone-resistant Staphylococcus aureus SA1199B assessed as inhibition of microbial growth; assay type: functional
Staphylococcus aureus [18] = experiment: Additive antibacterial activity against Staphylococcus aureus RN4220 assessed as fractional inhibitory concentration index in presence of streptomycin; assay type: functional

SMILES	IC50 [1]	IC50 (MHCC97H)	IC50 (HepG2)	IC50 at 24 h [2]	MIC (Staphylococcus aureus [3])	MIC (Staphylococcus aureus [4])	MIC (Staphylococcus aureus [5])	fractional inhibitory concentration index (FICI) (Staphylococcus aureus [6])	Ratio (Staphylococcus aureus [7])	inhibition [8]	further results
O=C1C=CC[C@H]([C@@H](O)[C@H](c2ccccc2)c2c(O)cc(O)c3c2O[C@H](c2ccccc2)CC3=O)O1	> 100 µM	> 100 µM	> 100 µM	> 100 µM	128 µg/mL	16 µg/mL	32 µg/mL	0.37	4	Active	
O=C1C=CC[C@H]([C@@H](O)[C@H](c2ccccc2)c2c(O)cc3c(c2O)C(=O)C[C@@H](c2ccccc2)O3)O1	33 µM	> 100 µM	> 100 µM	> 100 µM	> 512 µg/mL	16 µg/mL	32 µg/mL	0.28	4	Active	IC50 (COLO 205): 2.8 µM; IC50 (LS-513): 1.6 µM; IC50 (SW-620): 2.6 µM; MIC (Staphylococcus aureus [9]): 64 µg/mL; MIC (Staphylococcus aureus [10]): > 512 µg/mL; MIC (Staphylococcus aureus [11]): 16 µg/mL; MIC (Staphylococcus aureus [12]): 64 µg/mL; MIC (Staphylococcus aureus [13]): 8 µg/mL; MIC (Staphylococcus aureus [14]): 64 µg/mL; fractional inhibitory concentration index (FICI) (Staphylococcus aureus [15]): 0.37; fractional inhibitory concentration index (FICI) (Staphylococcus aureus [16]): 0.62
CCn1cc(C(=O)O)c(=O)c2cc(F)c(N3CCNCC3)cc21 [NORFLOXACIN]					128 µg/mL						
N#CC(C#N)=NNc1cccc(Cl)c1										Active	
O=c1[nH]cc(F)c(=O)[nH]1 [FLUOROURACIL]											IC50 (COLO 205): 32 µM; IC50 (LS-513): 84 µM; IC50 (SW-620): 43 µM
O=C1C=CC[C@@H]([C@@H](O)[C@@H](c2ccccc2)c2c(O)cc3c(c2O)C(=O)C[C@@H](c2ccccc2)O3)O1	30 µM	63 µM	63 µM	90 µM	> 512 µg/mL	8 µg/mL	16 µg/mL	0.14	8	Active	MIC (Staphylococcus aureus [9]): 64 µg/mL; MIC (Staphylococcus aureus [10]): > 512 µg/mL; MIC (Staphylococcus aureus [11]): 8 µg/mL; MIC (Staphylococcus aureus [12]): 64 µg/mL; MIC (Staphylococcus aureus [13]): 8 µg/mL; MIC (Staphylococcus aureus [14]): 128 µg/mL; fractional inhibitory concentration index (FICI) (Staphylococcus aureus [15]): 0.37; fractional inhibitory concentration index (FICI) (Staphylococcus aureus [16]): 0.62; MIC (Staphylococcus aureus [17]): 16 µg/mL
O=C1C=CC[C@H]([C@@H](O)[C@@H](c2ccccc2)c2c(O)cc(O)c3c2O[C@H](c2ccccc2)CC3=O)O1	82 µM	> 100 µM	82 µM	> 100 µM	> 512 µg/mL	64 µg/mL	32 µg/mL	0.37			
O=C1C=CC[C@@H]([C@H](O)[C@@H](c2ccccc2)c2c(O)cc(O)c3c2O[C@H](c2ccccc2)CC3=O)O1	> 100 µM	> 100 µM	> 100 µM	> 100 µM	256 µg/mL	16 µg/mL	32 µg/mL	0.31	4	Active	IC50 (COLO 205): 12 µM; IC50 (LS-513): 2.4 µM; IC50 (SW-620): 3.9 µM; MIC (Staphylococcus aureus [9]): 64 µg/mL; MIC (Staphylococcus aureus [10]): 512 µg/mL; MIC (Staphylococcus aureus [11]): 16 µg/mL; MIC (Staphylococcus aureus [12]): 64 µg/mL; MIC (Staphylococcus aureus [13]): 16 µg/mL; MIC (Staphylococcus aureus [14]): 64 µg/mL; fractional inhibitory concentration index (FICI) (Staphylococcus aureus [18]): 0.5; fractional inhibitory concentration index (FICI) (Staphylococcus aureus [16]): 0.62
CNC(=O)c1cc(Oc2ccc(NC(=O)Nc3ccc(Cl)c(C(F)(F)F)c3)cc2)ccn1 [SORAFENIB]	9.2 µM	15 µM	14 µM								
CN(C)[C@@H]1C(O)=C(C(N)=O)C(=O)[C@@]2(O)C(O)=C3C(=O)c4c(O)cccc4[C@@](C)(O)[C@H]3C[C@@H]12 [TETRACYCLINE]											MIC (Staphylococcus aureus [10]): 128 µg/mL
O=C1C=CC[C@H]([C@H](O)[C@H](c2ccccc2)c2c(O)cc3c(c2O)C(=O)C[C@@H](c2ccccc2)O3)O1	> 100 µM	> 100 µM	> 100 µM	> 100 µM							
O=C1C=CC[C@@H]([C@@H](O)[C@H](Oc2c(O)cc3c(c2O)C(=O)C[C@@H](c2ccccc2)O3)c2ccccc2)O1	21 µM	41 µM	66 µM	> 100 µM	> 128 µg/mL	16 µg/mL	16 µg/mL	0.18	8		MIC (Staphylococcus aureus [17]): 16 µg/mL
O=C1C=CC[C@H]([C@@H](O)[C@H](Oc2c(O)cc3c(c2O)C(=O)C[C@@H](c2ccccc2)O3)c2ccccc2)O1	> 100 µM	> 100 µM	> 100 µM	> 100 µM	> 128 µg/mL	32 µg/mL	16 µg/mL	0.25	8		MIC (Staphylococcus aureus [17]): 16 µg/mL
CN[C@@H]1[C@H](O[C@H]2[C@H](O[C@H]3[C@H](O)[C@@H](O)[C@H](N=C(N)N)[C@@H](O)[C@@H]3N=C(N)N)O[C@@H](C)[C@]2(O)C=O)O[C@@H](CO)[C@H](O)[C@H]1O [STREPTOMYCIN]											MIC (Staphylococcus aureus [9]): 32 µg/mL
